{"source": "patent US20090312414A1", "about": "“Treatment Of Lower Urinary Tract Dysfunction With CB2-Receptor-Selective Agonists” (priority 2008, published 2009)", "key": {"CB2 receptor": {"biological_target": "CB2 receptor (Homo sapiens, UniProt P34972)", "sequence (P34972 whole entry)": "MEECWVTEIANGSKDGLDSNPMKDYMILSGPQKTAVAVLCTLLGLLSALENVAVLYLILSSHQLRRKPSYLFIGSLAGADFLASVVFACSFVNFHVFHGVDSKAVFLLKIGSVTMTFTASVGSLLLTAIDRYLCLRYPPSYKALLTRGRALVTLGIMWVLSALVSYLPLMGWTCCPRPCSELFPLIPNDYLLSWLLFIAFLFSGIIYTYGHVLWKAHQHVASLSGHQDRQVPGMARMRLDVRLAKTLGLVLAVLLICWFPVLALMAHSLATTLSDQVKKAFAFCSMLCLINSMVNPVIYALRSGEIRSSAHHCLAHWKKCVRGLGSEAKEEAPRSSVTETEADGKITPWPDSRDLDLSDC", "assay": "CB2 binding assay (displacement of radiolabeled agonist)", "details": "for IC50: displaces 50% of a radiolabeled agonist"}, "CB1 receptor": {"biological_target": "CB1 receptor (Homo sapiens, UniProt P21554)", "sequence (P21554 whole entry)": "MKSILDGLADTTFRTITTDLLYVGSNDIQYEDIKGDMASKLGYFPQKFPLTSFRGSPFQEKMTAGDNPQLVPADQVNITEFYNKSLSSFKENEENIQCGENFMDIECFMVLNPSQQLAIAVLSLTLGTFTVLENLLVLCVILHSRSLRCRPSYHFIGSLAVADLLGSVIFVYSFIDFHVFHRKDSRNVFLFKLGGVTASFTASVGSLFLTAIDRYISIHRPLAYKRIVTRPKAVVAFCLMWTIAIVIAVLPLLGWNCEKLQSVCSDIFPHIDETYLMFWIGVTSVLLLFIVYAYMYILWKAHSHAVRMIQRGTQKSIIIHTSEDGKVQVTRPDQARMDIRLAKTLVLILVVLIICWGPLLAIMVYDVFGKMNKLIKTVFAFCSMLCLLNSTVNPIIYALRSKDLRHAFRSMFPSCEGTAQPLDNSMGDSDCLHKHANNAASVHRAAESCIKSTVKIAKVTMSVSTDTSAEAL", "assay": "biochemical", "format": "binding", "details": "displaces 50% of a radiolabeled agonist"}, "[1]": {"tested_on": "urethane-anesthetized rats, acetic acid model", "assay": "Cystometry in acetic acid bladder hyperactivity model", "format": "in vivo, rat", "details": "for Effect on intercontraction interval (ICI): any tested dose i.v., 20, 40 or 60 min after administration", "method": "As used herein, the term “acute” means that the animals were dosed only one time, 30 minutes prior to taking the cystometry measurements (i.e., 30 minutes prior to the observation period). The acetic acid-induced model is an irritative model in which increased micturition frequency (decreased micturition interval) and reduced bladder capacity cystometry may be obtained after an intravesical infusion of a dilute solution of acetic acid (McMurray G, Casey J H, Naylor A M. Animal models in urological disease and sexual dysfunction. Br J Pharmacol. 2006; 147 Suppl:S62; Kakizaki H, de Groat W C. Role of spinal nitric oxide in the facilitation of the micturition reflex by bladder irritation. J Urol 1996; 155:355).\nAdult female Wistar rats (Janvier, Le Genest Saint Lisles, France), weighing 225-250 g were used. They were delivered to the laboratory at least 5 days before the experiments in order to be acclimatized to laboratory conditions, and were given food (Teklad Global 16% Protein Rodent Diet, Harlan, Gannat, France) and water ad libitum. The animal room was maintained at 21-24° C. with a 12/12 hours alternating light-dark cycle (light phase 07:00-19:00).\nRats were anesthetized by intraperitoneal injection of urethane (1.5 g/kg). After making a midline incision of the abdomen, a polyethylene catheter (0.3 mm ID and 0.7 mm OD) was implanted in the bladder through the dome. An IV catheter (0.58 mm ID and 0.96 mm OD) was also introduced into a jugular vein for test substance administration.\nCB2-receptor-selective agonists (compounds of Formulas II, III and IV) were initially dissolved in a vehicle containing a co-solvent mixture of Cremophor EL® (70%, BASF Corporation, Florham Park, N.J.) and ethanol (30%) as a 20-fold concentrated stock solution of the highest dose for testing. For lower doses, individual 20× stock solutions in Cremophor EL® (70%) and ethanol (30%) were also prepared by further dilution of the original 20× stock solution. Just prior to use, the appropriate 20× compound stock solution or vehicle was diluted 1:20 dilution (v:v) with saline to give the appropriate final concentration for dosing, and a single test substance or its vehicle were administered intravenously in a volume of 5 ml/kg and at an infusion rate of 0.2 ml/min.\nCystometric investigations were performed in the urethane anesthetized rats after bladder and jugular vein catheter implantation surgery. The bladder catheter was connected via a T-tube to a MX 860 Novatrans III Gold strain gauge (Medex Medical SARL, Nantes-Carquefou, France) and to a single-syringe infusion pump (70-2208 Model II Plus, Harvard Apparatus; Les Ulis, France). Physiological saline or 0.2% acetic acid (AA) in saline was infused into the bladder at a constant flow rate (0.05 ml/min), and intravesical pressure was recorded continuously using a MacLab/8e interface (ADInstruments Pty Ltd., Castle Hill, Australia) and the Chart software program. After a control period of 30 minutes (to calculate basal values), a single test substance or its vehicle were administered IV and the intravesical pressure was recorded for 1 hour after compound administration.\nIntravesical pressure data were analyzed with Microsoft Excel software. The micturition parameters measured were the following: Basal Pressure (“BP,” mmHg); Threshold Pressure (“ThP,” pressure at which micturition occurs, mmHg); Amplitude of Micturition (“AM,” pressure between ThP and Micturition Pressure, mmHg); Intercontraction Interval (“ICI,” time between two subsequent micturitions, sec); Micturition Frequency (“MF,” number of micturition contractions per 15 minute interval); and Area Under the Curve (“AUC” per 15 minute interval, mmHg·sec) was calculated from the lowest intravesical pressure value during the 15 minute interval. Bladder capacity (“BC”) was measured in ml.\nFor each rat, basal values for each parameter were calculated as the mean of the last four micturitions before vehicle or test substance administration. […]"}}}
{"smiles": "CCCCC(C)(C)c1cc(O)c([C@H]2C=C(CO)[C@H]3C[C@@H]2C3(C)C)c(O)c1", "note": "[Formula II]", "values": [{"measurement": "CB2/CB1 affinity ratio", "setting": "CB2 receptor", "result": 21}, {"measurement": "IC50", "setting": "CB2 receptor", "result": 8.4, "unit": "nM"}, {"measurement": "IC50", "setting": "CB1 receptor", "result": 181, "unit": "nM"}, {"measurement": "Effect on threshold pressure (ThP)", "setting": "[1]; 0.5 mg/kg i.v., at 20, 40 and 60 min, p<0.05", "result": "Significant increases"}, {"measurement": "Effect on threshold pressure (ThP)", "setting": "[1]; 1.5 mg/kg i.v., at 40 min, p<0.05", "result": "Significant increases"}, {"measurement": "Effect on threshold pressure (ThP)", "setting": "[1]; 5 mg/kg i.v., at 20 and 40 min, p<0.05", "result": "Significant increases"}, {"measurement": "Effect on basal pressure (BP)", "setting": "[1]; 5 mg/kg i.v., at 20 min, p<0.05", "result": "significantly increased"}, {"measurement": "Effect on intercontraction interval (ICI)", "setting": "[1]; vs basal values", "result": "no effect"}]}
{"smiles": "O=S(=O)(NCC1CC1)c1ccc(Nc2ccc(Cl)cc2Cl)cc1C(F)(F)F", "note": "[Formula IV, N-Cyclopropylmethyl-4-(2,4-dichloro-phenylamino)-2-trifluoromethyl-benzenesulfonamide]", "values": [{"measurement": "CB2/CB1 affinity ratio", "setting": "CB2 receptor", "result": 10}, {"measurement": "IC50", "setting": "CB2 receptor", "result": 30, "unit": "nM"}, {"measurement": "IC50", "setting": "CB1 receptor", "result": 313, "unit": "nM"}, {"measurement": "Effect on threshold pressure (ThP)", "setting": "[1]; 15 mg/kg i.v., at 20 min, vs basal values", "result": "significant increase"}, {"measurement": "Effect on basal pressure (BP)", "setting": "[1]; any dose (1.5, 5, 15 mg/kg i.v.) or time point, vs basal values", "result": "not changed"}, {"measurement": "Effect on intercontraction interval (ICI)", "setting": "[1]; vs basal values", "result": "no effect"}]}
{"smiles": "CCCCCCC(C)(C)c1cc(O)c2c(c1)OC1CCCCCC21", "note": "(centres unmarked) [Formula III]", "values": [{"measurement": "CB2/CB1 affinity ratio", "setting": "CB2 receptor", "result": 14}, {"measurement": "IC50", "setting": "CB2 receptor", "result": 6.5, "unit": "nM"}, {"measurement": "IC50", "setting": "CB1 receptor", "result": 92, "unit": "nM"}, {"measurement": "Effect on threshold pressure (ThP)", "setting": "[1]; 3 mg/kg i.v., all time points, vs basal values", "result": "significantly increased"}, {"measurement": "Effect on basal pressure (BP)", "setting": "[1]; 3 mg/kg i.v., from 0 to 60 min, p<0.05", "result": "significantly increased"}, {"measurement": "Effect on intercontraction interval (ICI)", "setting": "[1]; vs basal values", "result": "no effect"}]}
